Experimental data reported in patent US12527835B2, “Brevican-binding peptides for brain tumor imaging” (The Brigham and Women's Hospital, Inc., priority 2018, dated 2026).
Where a SMILES comes first, the peptide text is derived from it. [ ]: non-standard residue; d: D form. The star is where a group is joined. X1 = O=C(O)c1cc(NC(=S)*)ccc1-c1c2ccc(=O)cc-2oc2cc(O)ccc12; Ahx = NCCCCCC(=O)O

How the values were obtained:
human BBB organoids = assay: BBB organoid peptide permeability assay; format: in vitro ADME; settings: Cy5.5-labeled peptide, 10 μM, 3 hrs
Experimental: Immortalized hCMEC/D3, primary HBVP and primary human astrocytes were used for generation of BBB organoids as previously described (Cho et al., Nat Commun 8, 15623 (2017); Fadzen et al., J. Am. Chem. Soc. 139, 15628-15631 (2017)). Briefly, agarose (0.5 g) was dissolved in 50 mL of MilliQ water or PBS in a conical flask and the solution was heated in a microwave for 1-2 minutes until completely dissolved. Melted agarose was transferred into a sterile tissue culture hood and immediately poured into a 50-mL sterile basin. 50 μL of melted agarose was dispensed into each well in a 96-well plate using a multichannel pipette. The plate was set aside to allow agarose to solidify completely inside the wells for at least 15 minutes. […] Each cell type was counted using a hemocytometer, and 1,500 of each cell type were seeded into each well containing solidified agarose. […]
For peptide permeability analyses, after 48 hrs, organoids that formed successfully were pooled together into a 0.5-mL microcentrifuge tube in BBB working medium. […] The organoids were then transferred onto a thin-well chambered coverglass and imaged by confocal fluorescence microscopy. Quantification of peptide permeability was performed using the ImageJ software, where the mean fluorescence intensity of the core of each spheroid (at a depth between 50-90 μm) was measured, and then plotted on GraphPad Prism.

[1] = target: T1, recombinant BΔg protein (deglycosylated brevican) (Homo sapiens, UniProt Q96GW7); assay: Octet steady state binding affinity to recombinant BΔg; settings: KD of labeled versus unlabeled peptide
T1 construct: purchased R&D Systems 4009-BC-050
T1 sequence (Q96GW7 23-911): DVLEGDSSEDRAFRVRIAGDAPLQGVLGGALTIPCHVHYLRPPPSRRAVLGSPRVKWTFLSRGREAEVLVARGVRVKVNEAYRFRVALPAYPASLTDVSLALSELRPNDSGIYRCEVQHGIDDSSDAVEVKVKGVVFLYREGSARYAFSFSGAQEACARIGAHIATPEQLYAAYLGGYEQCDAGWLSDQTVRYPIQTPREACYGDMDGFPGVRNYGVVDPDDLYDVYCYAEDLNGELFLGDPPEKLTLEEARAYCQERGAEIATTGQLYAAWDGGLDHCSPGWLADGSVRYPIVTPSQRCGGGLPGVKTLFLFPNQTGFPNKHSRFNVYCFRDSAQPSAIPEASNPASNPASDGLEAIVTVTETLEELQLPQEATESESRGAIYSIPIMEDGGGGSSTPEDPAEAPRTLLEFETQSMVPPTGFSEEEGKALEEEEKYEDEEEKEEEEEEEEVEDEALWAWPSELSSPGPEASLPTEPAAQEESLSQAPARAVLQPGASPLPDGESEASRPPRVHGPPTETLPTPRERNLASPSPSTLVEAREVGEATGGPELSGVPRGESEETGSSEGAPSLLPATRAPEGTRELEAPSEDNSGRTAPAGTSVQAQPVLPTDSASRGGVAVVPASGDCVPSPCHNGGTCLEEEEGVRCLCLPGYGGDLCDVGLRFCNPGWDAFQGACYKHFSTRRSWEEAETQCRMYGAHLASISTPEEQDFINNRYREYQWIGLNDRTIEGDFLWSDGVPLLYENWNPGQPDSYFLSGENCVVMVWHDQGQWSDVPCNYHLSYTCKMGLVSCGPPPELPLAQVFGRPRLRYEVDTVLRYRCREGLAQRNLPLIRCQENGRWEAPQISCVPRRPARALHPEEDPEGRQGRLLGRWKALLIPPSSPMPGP
Experimental: A ForteBio OctetRed384 instrument was used to study the binding kinetics of each peptide to recombinant human brevican (re-suspended in PBS and 0.1 mM EDTA, pH 6.8). The brevican protein was deglycosylated prior to experimental use in water+0.05% tween, PI, sialidase, 0-glycosidase, N-glycosidase in sodium acetate [200 mM], NaCl [250 mM], Tris-HCl [200 mM], pH 7.5.) in the presence of protease inhibitor overnight at 4° C. (this entire composition will be referred to as ‘de-glycosylation buffer’). […] The final volume for all the solutions was 80 μl/well. Assays were performed at 30° C. in solid black 384-well plates (Geiger Bio-One). Prior to beginning, Ni-NTA biosensors were soaked for 10 min in working buffer. Before loading the protein onto each biosensor, a baseline was established in working buffer for 60 s. Deglycosylated brevican (50 μg/ml BΔg; His-tagged) was loaded on the surface of each biosensors for 180 s. […] Reference biosensors were also included in the plate as internal controls, where biosensors were exposed to the ‘de-glycosylation buffer’ lacking brevican protein during the loading step. A 60 s biosensor washing step was applied. Then, biosensors were exposed to the analyte (peptide) in working buffer (ranging between 0-10 μM BTP) for 300 s during the ‘association’ step. Finally, the biosensors were exposed to working buffer (without peptide) during the ‘dissociation’ step for 600 s. Binding affinity of each peptide was assessed through steady state analysis, where the response unit was plotted over peptide concentration. All data was plotted and curves were fitted using the non-linear ‘one-site specific binding’ fit, and the dissociation constant (KD) value was calculated using the GraphPad Prism software.
Binding kinetics analyses were performed using the Octet RED platform (Forte Bio) to measure the binding affinity of BTP-7, 8 and 9 to purified recombinant BΔg protein.

[2] = target: T2, glycosylated isoform of normal brevican (Bcan) (Homo sapiens, UniProt Q96GW7); assay: Octet steady state binding to fully glycosylated brevican (control); settings: Octet steady state analysis
T2 construct: purchased R&D Systems 4009-BC-050
T2 sequence (Q96GW7 23-911): T1 sequence (Q96GW7 23-911)

[3] = cited from earlier work

CC(C)[C@@H](NC(=O)[C@@H](Cc1c[nH]cn1)NC(=O)CNC(=O)[C@@H](Cc1c[nH]c2ccccc12)NC(=O)[C@@H](CCCCN)NC(=O)[C@H](N)[C@H](C)O)C(=O)N[C@H](CC(N)=O)C(=O)N[C@H](CCCCN)C(N)=O [BTP-7, TKWGHVNK]
influx into the core of the BBB organoids (human BBB organoids): dramatic influx

CC(C)[C@@H](NC(=O)[C@@H](Cc1c[nH]cn1)NC(=O)CNC(=O)[C@@H](Cc1c[nH]c2ccccc12)NC(=O)[C@@H](CCCCN)NC(=O)[C@H](N)[C@H](C)O)C(=O)N[C@H](CC(N)=O)C(=O)N[C@H](CCCCN)C(=O)NCCCCCC(=O)N[C@@H](CCCCNC(=S)Nc1ccc(-c2c3ccc(=O)cc-3oc3cc(O)ccc23)c(C(=O)O)c1)C(N)=O [BTP-7 conjugated to a fluorescein dye] (H-[dT][dK][dW]G[dH][dV][dN][dK][Ahx]K(X1)-NH2)
binding affinity relative to the unlabeled BTP-7 (times less) [1]: more than 10 times | binding to the glycosylated isoform of normal brevican [2]: does not bind

CC[C@@]1(O)C(=O)OCc2c1cc1n(c2=O)Cc2cc3ccccc3nc2-1 [CPT, camptothecin]
solubility of CPT itself [3]: insoluble
